Data published in US20200368247A1, “CENICRIVIROC FOR THE TREATMENT OF FIBROSIS” (Tobira Therapeutics, Inc., priority 2014, published 2020).
Several values for one entry are separate records, joined by “and”; a condition that tells them apart may be missing. Identical values can stand only once.

Tested on: NASH mice
Test: STAM mouse model of Non-alcoholic Steatohepatitis, anti-NASH/fibrosis effects, week 9
Format: in vivo
Experimental: NASH was induced in male mice by a single injection of […] streptozotocin 2 days after birth (causing impaired glucose control), followed by a high fat diet from 4 weeks of age. […] Animals were sacrificed at 9 weeks of age, and biochemical, gene expression, and histologic evaluations of the liver were conducted.
This in vivo efficacy study was performed to examine the effects of Cenicriviroc in the STAM™ mouse model of Non-alcoholic Steatohepatitis.

[1] = CVC-high 100 mg/kg/day, week 9, listed as Cenicriviroc
[2] = CVC-low 20 mg/kg/day, week 9, listed as Cenicriviroc

## CCCCOCCOc1ccc(-c2ccc3c(c2)/C=C(/C(=O)Nc2ccc([S@@+]([O-])Cc4cncn4CCC)cc2)CCCN3CC(C)C)cc1 [CVC, (S)-8-[4-(2-Butoxyethoxy)phenyl]-1-isobutyl-N-(4-{[(1-propyl-1H-imidazol-5-yl)methyl]sulfinyl}phenyl)-1,2,3,4-tetrahydro-1-benzazocine-5-carboxamide]
20 and 100 mg/kg/day, week 9
  decrease of collagen type 1 mRNA in whole liver lysates: 27-37%
CVC-high 100 mg/kg/day, week 9
  Body weight: 18.7 ± 0.9 g
  Modified Sirius red-positive area (perivascular space subtracted): 0.20% and 0.20±0.06%
  Plasma MCP-1: 91 ± 14 pg/mL
[1]
  Body weight: 18.7 ± 0.9 g
  Modified Sirius red-positive area (perivascular space subtracted): 0.20 ± 0.06%
  Plasma MCP-1: 91 ± 14 pg/mL
CVC-high, week 9, n = 6
  Hepatocyte ballooning score 0, number of mice: 1
  Hepatocyte ballooning score 1, number of mice: 2
  Hepatocyte ballooning score 2, number of mice: 3
  Lobular inflammation score 1, number of mice: 3
  Lobular inflammation score 2, number of mice: 3
  Steatosis score 0, number of mice: 1
  Steatosis score 1, number of mice: 5
CVC-low 20 mg/kg/day, week 9
  Body weight: 19.5 ± 2.0 g
  Liver hydroxyproline (μg/mg total protein): 0.63±0.05 μg/mg total protein
  Modified Sirius red-positive area (perivascular space subtracted): 0.29% and 0.29±0.14%
  Plasma ALT (U/L): 58±12 U/L
  Plasma MCP-1: 68 ± 16 pg/mL
  Plasma MIP-1β: 18 ± 2 pg/mL
[2]
  Body weight: 19.5 ± 2.0 g
  Liver hydroxyproline (μg/mg total protein): 0.63 ± 0.05 μg/mg total protein
  Modified Sirius red-positive area (perivascular space subtracted): 0.29 ± 0.14%
  Plasma ALT (U/L): 58 ± 12 U/L
  Plasma MCP-1: 68 ± 16 pg/mL
  Plasma MIP-1β: 18 ± 2 pg/mL
CVC-low, week 9, n = 6
  Hepatocyte ballooning score 1, number of mice: 3
  Hepatocyte ballooning score 2, number of mice: 3
  Lobular inflammation score 1, number of mice: 3
  Lobular inflammation score 2, number of mice: 3
  Steatosis score 1, number of mice: 6
Cenicriviroc-high, individual mice 301-306
  Modified positive area (%), per mouse: 0.20%
Cenicriviroc-high, individual mice 301-306, photos 1-5
  Modified positive area (%), per photo: 0.41% and 0.09% (2×) and 0.23% (2×) and 0.17% (2×) and 0.28% (2×) and 0.22% (2×) and 0.08% (3×) and 0.05% and 0.32% and 0.07% (3×) and 0.16% and 0.20% (2×) and 0.68% and 0.27% and 0.12% and 0.11% and 0.67% and 0.26% and 0.06% and 0.10%
Week 9
  Liver hydroxyproline (μg/mg total protein): 0.62±0.09 μg/mg total protein
  Plasma ALT (U/L): 51±13 U/L and 52±13 U/L
  Plasma MIP-1β: 20 ± 4 pg/mL
Week 9, listed as Cenicriviroc
  Liver hydroxyproline (μg/mg total protein): 0.62 ± 0.09 μg/mg total protein
  Plasma ALT (U/L): 52 ± 13 U/L
  Plasma MIP-1β: 20 ± 4 pg/mL
